pEC50: −log10 of the molar value.
These compounds were tested against T1, human M4 muscarinic acetylcholine receptor (Homo sapiens, UniProt P08173) (assay: human FLIPR-based M4 PAM assay, CHO-K1 cells stably transfected with human M4 receptor and chimeric G-protein Gαqi5). Conditions: inflection point (IP) of dose response curve; acetylcholine added at 20% of maximum response; CHO-K1 human M4/Gαqi5, FLIPR Tetra.
T1 construct: expressed in transfected cells; host or cells: CHO-K1
T1 sequence (P08173 1-479): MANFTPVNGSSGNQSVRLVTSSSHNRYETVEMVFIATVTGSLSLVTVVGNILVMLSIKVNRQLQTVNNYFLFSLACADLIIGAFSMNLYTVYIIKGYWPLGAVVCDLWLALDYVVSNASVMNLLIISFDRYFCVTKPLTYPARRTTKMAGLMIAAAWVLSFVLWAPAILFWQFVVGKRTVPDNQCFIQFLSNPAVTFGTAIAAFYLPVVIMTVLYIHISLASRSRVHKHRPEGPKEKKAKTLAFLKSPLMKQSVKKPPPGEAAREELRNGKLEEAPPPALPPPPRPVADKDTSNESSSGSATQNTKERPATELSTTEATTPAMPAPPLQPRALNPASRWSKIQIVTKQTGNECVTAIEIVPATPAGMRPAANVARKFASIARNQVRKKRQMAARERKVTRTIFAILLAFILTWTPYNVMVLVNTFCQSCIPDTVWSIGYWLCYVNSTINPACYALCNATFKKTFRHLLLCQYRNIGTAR
Format: cell-based
Outline: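 CHO-K1 cells were loaded with calcium dye at 37 °C for ~1 h. Fluorescence (ex 470–495/em 515–575 nm) was read for 4 min after test compound at increasing concentrations, then 3.5 min after acetylcholine at an EC20; sometimes a third addition at EC70 followed. The value is the inflection point of a 4-parameter logistic fit.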
With Cc1cc(C(=O)NC2C3CC2C3)nnc1N1CCC(Oc2ccc3c(c2)OCCO3)CC1 (stereo not shown) [Example 131, N-bicyclo[1.1.1]pent-2-yl-6-[4-(2,3-dihydro-1,4-benzodioxin-6-yloxy)piperidin-1-yl]-5-methylpyridazine-3-carboxamide] the pEC50 was 6.90. COc1ccc(OC2CCN(c3ncnc(-c4ccc(F)cc4)c3C)CC2)cn1 [Example 257, 4-(4-fluorophenyl)-6-(4-((6-methoxypyridin-3-yl)oxy)piperidin-1-yl)-5-methylpyrimidine] was tested, and the pEC50 was 5.57. CONC(=O)c1cc(C)c(N2CCC(Oc3ccc(OC)nc3)CC2)nn1 [Example 128, N-methoxy-6-{4-[(6-methoxypyridin-3-yl)oxy]piperidin-1-yl}-5-methylpyridazine-3-carboxamide] was tested, and the pEC50 was 6.92. Cc1c(Cl)nc(CO)nc1N1CCC(Oc2ccc3c(c2)OCCO3)CC1 [Example 92, (4-chloro-6-(4-((2,3-dihydrobenzo[b][1,4]dioxin-6-yl)oxy)piperidin-1-yl)-5-methylpyrimidin-2-yl)methanol] gave a pEC50 of 7.54. Compound Cc1nc(Cl)c(C)c(N2CCC(Oc3cccnc3)CC2)n1 [Example 12, 4-chloro-2,5-dimethyl-6-(4-(pyridin-3-yloxy)piperidin-1-yl)pyrimidine] has a pEC50 of 6.53. In the case of COc1ccc(OC2CCN(c3nnc(C(=O)N[C@@H]4CCc5ccccc5C4)cc3C)CC2)cn1 [Example 165A, (R)-6-{4-[(6-methoxypyridin-3-yl)oxy]piperidin-1-yl}-5-methyl-N-(1,2,3,4-tetrahydronaphthalen-2-yl)pyridazine-3-carboxamide], the pEC50 was 6.46. Compound COC(=O)c1cc(C)c(N2CCC(Oc3cccc(C#N)c3)CC2)nn1 [Example 58, methyl 6-(4-(3-cyanophenoxy)piperidin-1-yl)-5-methylpyridazine-3-carboxylate] has a pEC50 of 7.19.
